Here are results for 6 molecules from publication PMC8232704, “Hydrophobic Tagging-Mediated Degradation of Transcription Coactivator SRC-1” (International Journal of Molecular Sciences, 2021).

Bridge positions count the residues as written; N and C are the ends. Square brackets hold non-standard residues; d marks the D form. Peptide text beside a SMILES is read from it. N(1-adamantyl)Gly = O=C(O)CNC12CC3CC(CC(C3)C1)C2; Cha = N[C@@H](CC1CCCCC1)C(=O)O; S5 = C=CCCC[C@](C)(N)C(=O)O; PEG2 = NCCOCCOCCC(=O)O; PEG1 = NCCOCCC(=O)O; Ahx = NCCCCCC(=O)O; Ava = NCCCCC(=O)O; GABA = NCCCC(=O)O

Data set [1] addresses T1, SRC-1 in MDA-MB-231 cells (Homo sapiens, UniProt Q15788).
T1 construct: endogenous in cells; host or cells: MDA-MB-231
Briefly: Immunoblot analysis of cellular SRC-1 levels (SRC-1 degradation). The format is cell-based. Conditions: MDA-MB-231 cells, 18 h; for SRC-1 (%): normalized to GAPDH and DMSO controls. As for the experimental part:
MDA-MB-231 and HEK293T cells were cultured in a medium containing Dulbecco’s modified eagle medium (DMEM) supplemented with 1% penicillin–streptomycin (PS) and 10% FBS with 5% CO2 at 37 °C.
MDA-MB-231 cells were seeded into 6-well pates (Corning, 3506) at a density of 6 × 10^5 cell per well. After incubation at 37 °C for 24 h, cells were treated with synthesized compounds in Opti-MEM medium for 12, 18, or 24 h. Cells were washed twice with cold Dulbecco’s phosphate-buffered saline (DPBS) prior to cell lysis using a cell lysis buffer (1% Triton X-100, 150 mM NaCl, 50 mM Tris-HCl pH 7.6, 0.1% SDS, 0.5% sodium deoxycholate, and 1 × protease inhibitor cocktail) on ice. Cell lysates were centrifuged at 13,000 rpm at 4 °C for 15 min. The supernatant was collected, and protein concentration was determined using Pierce^TM 660nm protein assay. A 6 × SDS loading buffer was added to the cell lysate and incubated at 95 °C for 5 min. The same amount of protein was subjected to SDS-PAGE and transferred to PVDF membranes. After blocking membranes with 5% skim milk in TBST (Tris-buffered saline with 0.05% Tween 20), membranes were incubated with a primary antibody at 4 °C overnight. Membranes were then incubated with HRP-linked secondary antibody at rt for 1 h and developed with Pico ECL solution. In MG-132 and 17-AAG treatment experiments, MDA-MB-231 cells were cotreated with synthesized compounds and MG-132 (5 μM) or 17-AAG (1 μM) at 37 °C for 18 h.

Data set [2] deals with T2, PAS-B domain of human SRC-1 (residues 257–385) (Homo sapiens, UniProt Q15788).
T2 construct: PAS-B domain of human SRC-1 (residues 257–385); His6; made in house; host or cells: Rosetta E. coli
T2 sequence (Q15788 257-385): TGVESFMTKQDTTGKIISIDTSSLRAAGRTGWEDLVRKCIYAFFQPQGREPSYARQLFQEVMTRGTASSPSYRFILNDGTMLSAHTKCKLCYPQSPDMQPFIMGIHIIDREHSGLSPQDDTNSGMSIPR
Kind of data set: Competitive fluorescence polarization (FP) assay, fluorescein-labeled STAT-6 peptide binding to SRC-1. Conditions: 100 nM fluorescein-labeled 15-mer STAT-6 peptide, 1 μM PAS-B domain of SRC-1, HEPES pH 7.4, SD from three independent experiments. The protocol: A plasmid expressing the PAS-B domain of human SRC-1 (residues 257–385) tagged with His6 was provided by John A. Robinson (University of Zürich at Switzerland). It was transformed into Rosetta E. coli cells. SRC-1 protein purification was performed as described previously.
After incubating 100 nM of fluorescein-labeled 15-mer STAT-6 peptide with 1 μM of PAS-B domain of SRC-1 in a binding buffer (50 mM HEPES pH 7.4, 150 mM NaCl, 3.4 mM EDTA, and 0.01% Tween 20) in a black Greiner 384-well plate for 30 min, indicated concentrations of YL2 and YL2-HyT1 through YL2-HyT6 were added to each well. After incubation for another 1.5 h, fluorescence polarization was measured on a Tecan Infinite F200 Pro microplate reader (excitation wavelength: 485 nm, emission wavelength: 535 nm). The Ki values of the compounds in the competition assay were determined using the following equation [43]. (1) Ki=[I]50/[L]50/KD+[P]0/KD+1 where [I]50 is the concentration of the free inhibitor at 50% inhibition, KD is the dissociation constant of the protein–ligand complex, [L]50 is the concentration of the free labeled ligand at 50% inhibition, and [P]0 is the concentration of the free protein at 0% inhibition.

Data set [3] can be described thus: Circular dichroism (CD), calculated helicity. It counts as physicochemical. Conditions: 50 μM peptide in 30% PBS (pH 7.4) and 70% acetonitrile, calculated from CD spectra. As for the experimental part:
Lyophilized compounds (YL2 and YL2-HyT1 through YL2-HyT6) were dissolved in 30% PBS (pH 7.4) and 70% acetonitrile solution to a final concentration of 50 μM. CD spectra were measured with a Jasco J-815 CD spectropolarimeter using a quartz cuvette (2 mm path length). These spectra were averages of five successive accumulations with a scan rate of 100 nm/min. Raw data were converted in terms of per-residue molar ellipticity (deg·cm^2·dmol^−1·residue^−1) as calculated per mole of amide groups present and normalized by the molar concentration of peptides. Smoothing and correction of background spectra were performed with Origin Pro 8.0 (OriginLab Corporation, Northampton, MA, USA). Then α-helical propensities of YL2 and YL2-HyT1 through YL2-HyT6 were calculated as previously reported.

Data set [4] has as its system E-cadherin mRNA in MDA-MB-231 cells. Kind of data set: RT-qPCR of E-cadherin mRNA. It counts as cell-based, human. Conditions: 18 h, RT-qPCR normalized to 18S. The protocol: (§1) Quantitative real-time PCR was performed for CSF-1, E-cadherin, and 18S (as a reference gene) mRNAs. MDA-MB-231 cells (1.2 × 10^5 cells/well) were seeded into a 12-well plate and incubated at 37 °C with 5% CO2 for 24 h. These cells were treated with indicated compounds (YL2, adamantane, ND1-YL2, or YL2-HyT6) for 18 h in Opti-MEM medium. After cells were washed with cold DPBS, mRNAs were isolated from these cells using an AccuPrep Universal RNA extraction kit (Bioneer, Daejeon, Korea). Then 1.5 µg of mRNAs were reverse-transcribed using AccuPower RocketScript Cycle RT PreMix (Bioneer) to generate complementary DNAs. RT-qPCR for CSF-1, E-cadherin, and 18S was performed with a StepOnePlus Real-Time PCR System (Applied Biosystems, Waltham, MA, USA) and SYBR Green mix (Applied Biosystems) according to the manufacturer’s instructions with gene-specific primers (Table 1).

For data set [5], the system named is CSF-1 mRNA in MDA-MB-231 cells. Kind of data set: RT-qPCR of CSF-1 mRNA. The format is cell-based, human. The following applies: 18 h, RT-qPCR normalized to 18S. The protocol:
as §1

T1 sequence (Q15788 whole entry): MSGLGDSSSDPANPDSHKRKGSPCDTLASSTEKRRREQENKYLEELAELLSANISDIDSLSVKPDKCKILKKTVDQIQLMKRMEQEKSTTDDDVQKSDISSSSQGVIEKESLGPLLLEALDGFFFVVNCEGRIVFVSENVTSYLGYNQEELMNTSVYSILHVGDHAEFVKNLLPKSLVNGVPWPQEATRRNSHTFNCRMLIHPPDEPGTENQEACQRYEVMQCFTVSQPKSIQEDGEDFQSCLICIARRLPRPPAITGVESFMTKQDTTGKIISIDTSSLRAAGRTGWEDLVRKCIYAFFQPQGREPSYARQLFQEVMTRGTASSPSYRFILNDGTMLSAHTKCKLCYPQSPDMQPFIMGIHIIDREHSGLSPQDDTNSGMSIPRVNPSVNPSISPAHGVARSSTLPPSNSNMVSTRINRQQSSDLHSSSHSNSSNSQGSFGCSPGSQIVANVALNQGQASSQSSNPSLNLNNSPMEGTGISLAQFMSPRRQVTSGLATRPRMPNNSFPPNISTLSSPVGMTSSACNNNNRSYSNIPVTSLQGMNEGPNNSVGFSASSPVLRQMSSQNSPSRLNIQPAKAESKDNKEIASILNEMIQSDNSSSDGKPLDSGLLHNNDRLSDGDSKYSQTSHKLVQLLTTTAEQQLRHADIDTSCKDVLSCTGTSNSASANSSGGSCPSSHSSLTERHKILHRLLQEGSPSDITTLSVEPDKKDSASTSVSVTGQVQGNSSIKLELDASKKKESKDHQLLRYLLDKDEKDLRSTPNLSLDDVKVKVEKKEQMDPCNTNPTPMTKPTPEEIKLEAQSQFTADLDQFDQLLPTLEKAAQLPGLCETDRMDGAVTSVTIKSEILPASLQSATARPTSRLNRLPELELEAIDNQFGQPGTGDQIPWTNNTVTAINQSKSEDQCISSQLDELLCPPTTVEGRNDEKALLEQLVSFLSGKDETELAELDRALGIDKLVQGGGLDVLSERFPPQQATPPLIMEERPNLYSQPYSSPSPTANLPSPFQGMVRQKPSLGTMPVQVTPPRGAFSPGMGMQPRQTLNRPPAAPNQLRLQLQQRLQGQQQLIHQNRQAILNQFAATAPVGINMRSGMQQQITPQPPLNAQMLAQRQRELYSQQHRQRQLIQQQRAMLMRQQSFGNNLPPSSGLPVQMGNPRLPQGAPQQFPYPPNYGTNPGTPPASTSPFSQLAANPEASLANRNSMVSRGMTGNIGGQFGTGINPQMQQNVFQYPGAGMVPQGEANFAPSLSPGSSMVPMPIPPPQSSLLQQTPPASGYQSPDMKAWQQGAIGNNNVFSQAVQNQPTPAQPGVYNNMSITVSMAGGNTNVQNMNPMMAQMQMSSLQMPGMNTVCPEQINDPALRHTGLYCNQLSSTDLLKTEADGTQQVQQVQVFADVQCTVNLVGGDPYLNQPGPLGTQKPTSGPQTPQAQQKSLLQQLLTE

As for `CC(C)C[C@H](NC(=O)CCCNC(=O)CNC12CC3CC(CC(C3)C1)C2)C(=O)N[C@@H](CC(C)C)C(=O)N1CCC[C@H]1C(=O)N1CCC[C@H]1C(=O)N[C@H](C(=O)N[C@@H](CCC(=O)O)C(=O)N[C@@H](CCC(N)=O)C(=O)N[C@@H](CC(=O)O)C(=O)N[C@@H](CC(C)C)C(=O)N[C@@]1(C)CCC/C=C\CCC[C@@](C)(C(=O)N[C@@H](Cc2ccc(O)cc2)C(N)=O)NC(=O)[C@H](CC2CCCCC2)NC(=O)[C@H](CC(C)C)NC(=O)[C@H](CCCCN)NC1=O)[C@@H](C)O` [YL2-HyT1] (H-[N(1-adamantyl)Gly][GABA]LLPPTEQDL[S5]KL[Cha][S5]Y-NH2; staple (Z) 12-16; C-terminus assumed), the “SRC-1 (%)” value in data set [1] (10 μM compound) was 98%; in data set [1] (20 μM compound), 99%; in data set [1] (50 μM compound), 91%. The affinity in data set [2] corresponds to a Ki of 1080 ± 32 nM. The “Helicity (%)” value in data set [3] was 24.1%.

For the molecule `CC(C)C[C@H](NC(=O)CCCCNC(=O)CNC12CC3CC(CC(C3)C1)C2)C(=O)N[C@@H](CC(C)C)C(=O)N1CCC[C@H]1C(=O)N1CCC[C@H]1C(=O)N[C@H](C(=O)N[C@@H](CCC(=O)O)C(=O)N[C@@H](CCC(N)=O)C(=O)N[C@@H](CC(=O)O)C(=O)N[C@@H](CC(C)C)C(=O)N[C@@]1(C)CCC/C=C\CCC[C@@](C)(C(=O)N[C@@H](Cc2ccc(O)cc2)C(N)=O)NC(=O)[C@H](CC2CCCCC2)NC(=O)[C@H](CC(C)C)NC(=O)[C@H](CCCCN)NC1=O)[C@@H](C)O` [YL2-HyT2] (H-[N(1-adamantyl)Gly][Ava]LLPPTEQDL[S5]KL[Cha][S5]Y-NH2; staple (Z) 12-16; C-terminus assumed), the “SRC-1 (%)” value worked out at 92% in data set [1] (10 μM compound), 85% in data set [1] (20 μM compound) and 66% in data set [1] (50 μM compound). The Ki in data set [2] came out at 1520 ± 87 nM. Moreover, in data set [3], the “Helicity (%)” value is reported as 18.7%.

With `CC(C)C[C@H](NC(=O)CCCCCNC(=O)CNC12CC3CC(CC(C3)C1)C2)C(=O)N[C@@H](CC(C)C)C(=O)N1CCC[C@H]1C(=O)N1CCC[C@H]1C(=O)N[C@H](C(=O)N[C@@H](CCC(=O)O)C(=O)N[C@@H](CCC(N)=O)C(=O)N[C@@H](CC(=O)O)C(=O)N[C@@H](CC(C)C)C(=O)N[C@@]1(C)CCC/C=C\CCC[C@@](C)(C(=O)N[C@@H](Cc2ccc(O)cc2)C(N)=O)NC(=O)[C@H](CC2CCCCC2)NC(=O)[C@H](CC(C)C)NC(=O)[C@H](CCCCN)NC1=O)[C@@H](C)O` [YL2-HyT3] (H-[N(1-adamantyl)Gly][Ahx]LLPPTEQDL[S5]KL[Cha][S5]Y-NH2; staple (Z) 12-16; C-terminus assumed), the “SRC-1 (%)” value is recorded as 73% in data set [1] (10 μM compound), 58% in data set [1] (20 μM compound) and 50% in data set [1] (50 μM compound). Besides, the Ki in data set [2] was found to be 681 ± 54 nM. The “Helicity (%)” value in data set [3] is listed as 24.9%.

As to `CC(C)C[C@H](NC(=O)CCOCCNC(=O)CNC12CC3CC(CC(C3)C1)C2)C(=O)N[C@@H](CC(C)C)C(=O)N1CCC[C@H]1C(=O)N1CCC[C@H]1C(=O)N[C@H](C(=O)N[C@@H](CCC(=O)O)C(=O)N[C@@H](CCC(N)=O)C(=O)N[C@@H](CC(=O)O)C(=O)N[C@@H](CC(C)C)C(=O)N[C@@]1(C)CCC/C=C\CCC[C@@](C)(C(=O)N[C@@H](Cc2ccc(O)cc2)C(N)=O)NC(=O)[C@H](CC2CCCCC2)NC(=O)[C@H](CC(C)C)NC(=O)[C@H](CCCCN)NC1=O)[C@@H](C)O` [YL2-HyT4] (H-[N(1-adamantyl)Gly][PEG1]LLPPTEQDL[S5]KL[Cha][S5]Y-NH2; staple (Z) 12-16; C-terminus assumed), the results for the “SRC-1 (%)” value in data set [1] (10 μM compound), in data set [1] (20 μM compound) and in data set [1] (50 μM compound) were 83%, 53% and 70%, respectively. In addition, the Ki in data set [2] was 484 ± 52 nM. In data set [3], the “Helicity (%)” value is recorded as 29.9%.

On to `CC(C)C[C@H](NC(=O)CCOCCOCCNC(=O)CNC12CC3CC(CC(C3)C1)C2)C(=O)N[C@@H](CC(C)C)C(=O)N1CCC[C@H]1C(=O)N1CCC[C@H]1C(=O)N[C@H](C(=O)N[C@@H](CCC(=O)O)C(=O)N[C@@H](CCC(N)=O)C(=O)N[C@@H](CC(=O)O)C(=O)N[C@@H](CC(C)C)C(=O)N[C@@]1(C)CCC/C=C\CCC[C@@](C)(C(=O)N[C@@H](Cc2ccc(O)cc2)C(N)=O)NC(=O)[C@H](CC2CCCCC2)NC(=O)[C@H](CC(C)C)NC(=O)[C@H](CCCCN)NC1=O)[C@@H](C)O` [YL2-HyT5] (H-[N(1-adamantyl)Gly][PEG2]LLPPTEQDL[S5]KL[Cha][S5]Y-NH2; staple (Z) 12-16; C-terminus assumed), for which the “SRC-1 (%)” value in data set [1] (10 μM compound) worked out at 78%; in data set [1] (20 μM compound), 95%; in data set [1] (50 μM compound), 57%. The inhibitory constant (Ki) in data set [2] came to 549 ± 17 nM. Further, the “Helicity (%)” value in data set [3] is recorded as 27.2%.

On to `C1C2CC3CC1CC(C2)C3` [adamantane], for which the “SRC-1 degradation (immunoblot)” value in data set [1] (20 μM) is “no effect”. Besides, the “E-cadherin mRNA expression level” value in data set [4] is “no effect”. For the same molecule, in data set [5], the “CSF-1 mRNA expression level” value was “no effect”.
